Measurements taken from US9169254B2, “Spiroimidazolone derivative” (Chugai Seiyaku Kabushiki Kaisha, priority 2009, dated 2015).

Target: T1, human PTH1 receptor (Homo sapiens, UniProt Q03431)
T1 sequence (Q03431 27-593): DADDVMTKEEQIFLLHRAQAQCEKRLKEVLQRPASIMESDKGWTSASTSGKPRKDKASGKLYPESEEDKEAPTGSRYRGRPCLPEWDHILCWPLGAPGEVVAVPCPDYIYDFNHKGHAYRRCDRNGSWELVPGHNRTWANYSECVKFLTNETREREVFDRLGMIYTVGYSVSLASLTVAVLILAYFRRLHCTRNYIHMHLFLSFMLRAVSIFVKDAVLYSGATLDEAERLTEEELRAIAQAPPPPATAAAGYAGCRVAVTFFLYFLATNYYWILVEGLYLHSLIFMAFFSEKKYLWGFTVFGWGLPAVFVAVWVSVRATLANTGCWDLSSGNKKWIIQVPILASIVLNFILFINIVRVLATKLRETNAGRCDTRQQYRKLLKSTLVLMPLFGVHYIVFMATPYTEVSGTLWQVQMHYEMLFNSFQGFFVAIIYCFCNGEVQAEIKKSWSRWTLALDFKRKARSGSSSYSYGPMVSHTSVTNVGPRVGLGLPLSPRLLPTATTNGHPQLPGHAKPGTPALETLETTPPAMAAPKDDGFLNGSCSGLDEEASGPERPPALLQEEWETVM
Assay: In vitro cAMP signal activity in HKRK-B7 cells (LLC-PK1 cells overexpressing the human PTH1 receptor)
Format: cell-based
Details: HKRK-B7 cells; compound at 1×10^−3 M; cAMP produced as percentage of that produced by hPTH(1-34) at 100 nM

SMILES	cAMP production activity (%)
Cc1cc(C(=O)N2CCC(CCO)CC2)ccc1CCS(=O)(=O)N1CCC2(CC1)N=C(c1cccc(C(F)(F)F)c1)NC2=O [Compound 357, 8-(2-{4-[4-(2-hydroxy-ethyl)-piperidine-1-carbonyl]-2-methyl-phenyl}-ethanesulfonyl)-2-(3-trifluoromethyl-phenyl)-1,3,8-triaza-spiro[4.5]dec-1-en-4-one]	78
CCCCCCCCCC1=NC2(CCN(S(=O)(=O)CCc3c(C)cc(C(=O)N4CCCCC4)cc3C)CC2)C(=O)N1 [Compound 983, 8-{2-[2,6-dimethyl-4-(piperidine-1-carbonyl)-phenyl]-ethanesulfonyl}-2-nonyl-1,3,8-triaza-spiro[4.5]dec-1-en-4-one]	91
Cc1cc(C(=O)N2CCC(C)(O)CC2)cc(C)c1/C=C/S(=O)(=O)N1CCC2(CC1)N=C(c1ccc(F)c(OCCCC(F)(F)F)c1)NC2=O [Compound 1218, 2-[4-fluoro-3-(4,4,4-trifluoro-butoxy)-phenyl]-8-{(E)-2-[4-(4-hydroxy-4-methyl-piperidine-1-carbonyl)-2,6-dimethyl-phenyl]-ethenesulfonyl}-1,3,8-triaza-spiro[4.5]dec-1-en-4-one]	90
CCSCCCCCCC1=NC2(CCN([S@TB18](=O)(=O)CCc3c(C)cc(N(C)C(N)=O)cc3C)CC2)C(=O)N1 [Compound 1154, 1-(4-{2-[2-(6-ethylsulfanyl-hexyl)-4-oxo-1,3,8-triaza-spiro[4.5]dec-1-ene-8-sulfonyl]-ethyl}-3,5-dimethyl-phenyl)-1-methyl-urea]	115
O=C1NC(C2CCCCC2)=NC12CCN(S(=O)(=O)CCCCc1cccc3[nH]ccc13)CC2 [Compound 263, 2-cyclohexyl-8-[4-(1H-indol-4-yl)-butane-1-sulfonyl]-1,3,8-triaza-spiro[4.5]dec-1-en-4-one]	41
CC(=O)N(CCO)c1cc(C)c(/C=C/S(=O)(=O)N2CCC3(CC2)N=C(c2ccc(F)c(C(F)(F)F)c2)NC3=O)c(C)c1 [Compound 718, N-(4-{(E)-2-[2-(4-Fluoro-3-trifluoromethyl-phenyl)-4-oxo-1,3,8-triaza-spiro[4.5]dec-1-ene-8-sulfonyl]-vinyl}-3,5-dimethyl-phenyl)-N-(2-hydroxy-ethyl)-acetamide]	74
CONC(=O)Cc1ccc(CCS(=O)(=O)N2CCC3(CC2)N=C(C2CCC(C)CC2)NC3=O)c(C)c1 (stereo not shown) [Compound 1388, N-methoxy-2-(3-methyl-4-{2-[2-(4-methyl-cyclohexyl)-4-oxo-1,3,8-triaza-spiro[4.5]dec-1-ene-8-sulfonyl]-ethyl}-phenyl)-acetamide]	59
Cc1cc(OCCC(O)CO)ccc1/C=C/S(=O)(=O)N1CCC2(CC1)N=C(c1cccc(OC(F)(F)F)c1)NC2=O (stereo not shown) [Compound 531, 8-{(E)-2-[4-(3,4-dihydroxy-butoxy)-2-methyl-phenyl]-ethenesulfonyl}-2-(3-trifluoromethoxy-phenyl)-1,3,8-triaza-spiro[4.5]dec-1-en-4-one]	69
Cc1cc(N(C)C(N)=O)cc(Cl)c1CCS(=O)(=O)N1CCC2(CC1)N=C(C1CCC(C)CC1)NC2=O (stereo not shown) [Compound 683, 1-(3-Chloro-5-methyl-4-{2-[2-(4-methyl-cyclohexyl)-4-oxo-1,3,8-triaza-spiro[4.5]dec-1-ene-8-sulfonyl]-ethyl}-phenyl)-1-methyl-urea]	74
Cc1cc(NCC(N)=O)ccc1/C=C/S(=O)(=O)N1CCC2(CC1)N=C(c1cccc(OC(F)(F)F)c1)NC2=O [Compound 529, 2-(3-methyl-4-{(E)-2-[4-oxo-2-(3-trifluoromethoxy-phenyl)-1,3,8-triaza-spiro[4.5]dec-1-ene-8-sulfonyl]-vinyl}-phenylamino)-acetamide]	68
Cc1cc(C(=O)N(C)C)cc(C)c1/C=C/S(=O)(=O)N1CCC2(CC1)N=C(C1CCC(CCC(F)(F)F)CC1)NC2=O (stereo not shown) [Compound 994, 3,5,N,N-tetramethyl-4-((E)-2-{4-oxo-2-[4-(3,3,3-trifluoro-propyl)-cyclohexyl]-1,3,8-triaza-spiro[4.5]dec-1-ene-8-sulfonyl}-vinyl)-benzamide]	87
Cc1cc2ccc1CCS(=O)(=O)N1CCC3(CC1)N=C(NC3=O)c1cc(cc(C(F)(F)F)c1)OCCCCCN(C)C2=O [Compound 1409]	13
COc1cc(N(C)C(N)=O)cc(C)c1CCS(=O)(=O)N1CCC2(CC1)N=C(C1CCC(C)CC1)NC2=O (stereo not shown) [Compound 682, 1-(3-Methoxy-5-methyl-4-{2-[2-(4-methyl-cyclohexyl)-4-oxo-1,3,8-triaza-spiro[4.5]dec-1-ene-8-sulfonyl]-ethyl}-phenyl)-1-methyl-urea]	81
Cc1cc(C(=O)N(C)C)ccc1CCS(=O)(=O)N1CCC2(CC1)N=C(c1cccc(C(F)(F)F)c1)NC2=O [Compound 86, 3,N,N-trimethyl-4-{2-[4-oxo-2-(3-trifluoromethyl-phenyl)-1,3,8-triaza-spiro[4.5]dec-1-ene-8-sulfonyl]-ethyl}-benzamide]	66
Cc1cc(N2COCC2=O)ccc1/C=C/S(=O)(=O)N1CCC2(CC1)N=C(C1CCC(C)CC1)NC2=O (stereo not shown) [Compound 577, 2-(4-methyl-cyclohexyl)-8-{(E)-2-[2-methyl-4-(4-oxo-oxazolidin-3-yl)-phenyl]-ethenesulfonyl}-1,3,8-triaza-spiro[4.5]dec-1-en-4-one]	74
Cc1cc(C(=O)N(C)C)ccc1CCS(=O)(=O)N1CCC2(CC1)N=C(c1cc(C(F)(F)F)ccc1Cl)NC2=O [Compound 85, 4-{2-[2-(2-chloro-5-trifluoromethyl-phenyl)-4-oxo-1,3,8-triaza-spiro[4.5]dec-1-ene-8-sulfonyl]-ethyl}-3,N,N-trimethyl-benzamide]	76
CCCCCC#CCCC1=NC2(CCN(S(=O)(=O)/C=C/c3c(C)cc(N(C)C(N)=O)cc3C)CC2)C(=O)N1 [Compound 1025, 1-{3,5-dimethyl-4-[(E)-2-(2-non-3-ynyl-4-oxo-1,3,8-triaza-spiro[4.5]dec-1-ene-8-sulfonyl)-vinyl]-phenyl}-1-methyl-urea]	114
CC(=O)N(C[C@H](O)CO)c1cc(C)c(/C=C/S(=O)(=O)N2CCC3(CC2)N=C(CCCCCCCCC(F)(F)F)NC3=O)c(C)c1 [Compound 707, N—((S)-2,3-Dihydroxy-propyl)-N-(3,5-dimethyl-4-{(E)-2-[4-oxo-2-(9,9,9-trifluoro-nonyl)-1,3,8-triaza-spiro[4.5]dec-1-ene-8-sulfonyl]-vinyl}-phenyl)-acetamide]	124
Cc1cc(N2C(=O)CN(C)C2=O)ccc1/C=C/S(=O)(=O)N1CCC2(CC1)N=C(C1CCC(C)CC1)NC2=O (stereo not shown) [Compound 505, 1-methyl-3-(3-methyl-4-{(E)-2-[2-(4-methyl-cyclohexyl)-4-oxo-1,3,8-triaza-spiro[4.5]dec-1-ene-8-sulfonyl]-vinyl}-phenyl)-imidazolidine-2,4-dione]	61
O=C1NC(C2CCCCC2)=NC12CCN(S(=O)(=O)CCc1cccc3c1CCCN3)CC2 [Compound 645, 2-Cyclohexyl-8-[2-(1,2,3,4-tetrahydro-quinolin-5-yl)-ethanesulfonyl]-1,3,8-triaza-spiro[4.5]dec-1-en-4-one]	55
Cc1cc(C(=O)N2CCC(C)(O)CC2)cc(C)c1/C=C/S(=O)(=O)N1CCC2(CC1)N=C(c1ccc3c(c1)OC(F)(F)C(F)(F)O3)NC2=O [Compound 1212, 8-{(E)-2-[4-(4-hydroxy-4-methyl-piperidine-1-carbonyl)-2,6-dimethyl-phenyl]-ethenesulfonyl}-2-(2,2,3,3-tetrafluoro-2,3-dihydro-benzo[1,4]dioxin-6-yl)-1,3,8-triaza-spiro[4.5]dec-1-en-4-one]	96
Cc1cc(N(C)C(N)=O)cc(C)c1CCS(=O)(=O)N1CCC2(CC1)N=C(C1CCC(C)(C)CC1)NC2=O [Compound 938, 1-(4-{2-[2-(4,4-dimethyl-cyclohexyl)-4-oxo-1,3,8-triaza-spiro[4.5]dec-1-ene-8-sulfonyl]-ethyl}-3,5-dimethyl-phenyl)-1-methyl-urea]	97
Cc1cc(N(C)C(N)=O)cc(C)c1/C=C/S(=O)(=O)N1CCC2(CC1)N=C(CCCCCCCCCC(=O)O)NC2=O [Compound 1171, 10-(8-{(E)-2-[2,6-Dimethyl-4-(1-methyl-ureido)-phenyl]-ethenesulfonyl}-4-oxo-1,3,8-triaza-spiro[4.5]dec-1-en-2-yl)-decanoic acid]	28
CNC1CCN(C(=O)c2ccc(CCS(=O)(=O)N3CCC4(CC3)N=C(c3cccc(C(F)(F)F)c3)NC4=O)c(C)c2)C1 (stereo not shown) [Compound 444, 8-{2-[2-Methyl-4-(3-methylamino-pyrrolidine-1-carbonyl)-phenyl]-ethanesulfonyl}-2-(3-trifluoromethyl-phenyl)-1,3,8-triaza-spiro[4.5]dec-1-en-4-one]	46
Cc1cc(C(=O)N(C)C)ccc1CCS(=O)(=O)N1CCC2(CC1)N=C(c1cccc(Cl)c1C)NC2=O [Compound 133, 4-{2-[2-(3-chloro-2-methyl-phenyl)-4-oxo-1,3,8-triaza-spiro[4.5]dec-1-ene-8-sulfonyl]-ethyl}-3,N,N-trimethyl-benzamide]	82
